Results: patent US11111235B2 (Denali Therapeutics Inc., priority 2016, dated 2021)

Key:
LRRK2 G2019S = LRRK2 G2019S (Homo sapiens (Human), UniProt Q5S007, G2019S); assay: LRRK2 G2019S TR-FRET biochemical assay (LRRKtide substrate); details: 134 μM ATP
Method: Materials: • LRRK2 G2019S enzyme • Substrate (LRRKtide) • ATP • TR-FRET dilution buffer • pLRRKtide antibody • 384-well assay plate • DMSO
Enzyme Reaction Conditions • 50 mM Tris pH 7.5, 10 mM MgCl2, 1 mM EGTA, 0.01% Brij-35.2 mM DTT • 5 nM LRRK2 • 134 μM ATP • 60 minute reaction time • 23° C. reaction temperature • 10 μL total reaction volume
Detection Reaction Conditions • 1× TR-FRET dilution buffer • 10 mM EDTA • 2 nM antibody • 23° C. reaction temperature • 10 μL total reaction volume
Compounds were prepared by initially diluting to 1 mM with DMSO. 35 μL of reference compound solution, 35 μL of test compound solution, and 35 μL HPE were successively added to the source plate (384-well assay plate, Labcyte). The plates were centrifuged at 2500 rpm for 1 minute and sealed in foil. POD was used to perform a 3.162 fold serial dilution and 100 nL of reference compound solution, test compound solution, HPE and ZPE were transferred to assay plates. The assay plate was centrifuged at 2500 rpm for 1 minute, and sealed with foil.
To perform the enzyme reaction, 5 μL of LRRKtide substrate and kinase mixture in assay buffer was added to all wells of the assay plate. The plate was centrifuged to concentrate the mixture at the bottom of the wells. The assay plate was incubated at 23° C. for 20 minutes. Following incubation, 5 μL of 2×ATP in assay buffer was added to each well, and plates were centrifuged to concentrate the mixture at the bottom of the wells. The plate was incubated at 23° C. for 60 minutes.
To perform the detection of the reaction, EDTA completely mixed in TR-FRET dilution buffer was added to antibody reagent. 10 μL of detection reagent was added to all wells of each well of the assay plate and the plate was centrifuged to concentrate the mixture at the bottom of the wells. The plate was then incubated at 23° C. for 60 minutes. Plates were read on Perkin Elmer Envision 2104 instrument in TR-FRET mode using 340 nm excitation filter, 520 nm fluorescence emission filter, and 490 or 495 nm terbium emission filter.

[1] = Metabolic stability in human liver microsomes; format: in vitro ADME; details: projected human hepatic clearance scaled from microsomal Clint, well-stirred model
Method: Metabolic stability of compounds was evaluated in human liver microsomes (from Corning or XenoTech, LLC) using a 96-well plate assay format. Compounds were incubated at 37° C. at […] final concentration in the microsomal matrix (0.5 mg/mL total protein) in the presence or absence of NADPH cofactor. An NADPH regenerating system, comprised of NADP, MgCl2, isocitric acid, and isocitrate dehydrogenase, was used in the assay. Enzymatic reactions were conducted for 0, 5, 10, 20, 30, or 60 min before termination by addition of acetonitrile containing tolbutamide and labetalol internal standards (100 ng/mL). After shaking for 10 min, plates were subjected to centrifugation (4000 rpm at 4° C.) for 20 min and supernatants were mixed 1:3 with HPLC grade water. Samples were analyzed by LC-MS/MS using appropriate MRM transitions for each analyte and internal standard (IS). Analyte/IS peak area ratios were used to determine percent compound remaining at each time point. Intrinsic clearance (Clint; expressed as mL·min^−1·mg^−1) was calculated from the first order elimination constant (k, min^−1) of test article decay and the volume of the incubation. These values were scaled to intrinsic organ clearance (Clint) using human specific scaling factors (48.8 mg microsomal protein per g liver; 25.7 g liver per kg body weight). Organ Clint was subsequently converted to hepatic clearance (CLhep, mL·min-1·kg-1) using the well-stirred model of hepatic elimination, where Qh is human hepatic blood flow (20.7 mL·min-1·kg-1).
CLhep is the projected human clearance in the liver based on the above in vitro assay. A lower value is indicative of less compound being removed by the liver.

Chain of LRRK2 G2019S (Q5S007 whole entry G2019S): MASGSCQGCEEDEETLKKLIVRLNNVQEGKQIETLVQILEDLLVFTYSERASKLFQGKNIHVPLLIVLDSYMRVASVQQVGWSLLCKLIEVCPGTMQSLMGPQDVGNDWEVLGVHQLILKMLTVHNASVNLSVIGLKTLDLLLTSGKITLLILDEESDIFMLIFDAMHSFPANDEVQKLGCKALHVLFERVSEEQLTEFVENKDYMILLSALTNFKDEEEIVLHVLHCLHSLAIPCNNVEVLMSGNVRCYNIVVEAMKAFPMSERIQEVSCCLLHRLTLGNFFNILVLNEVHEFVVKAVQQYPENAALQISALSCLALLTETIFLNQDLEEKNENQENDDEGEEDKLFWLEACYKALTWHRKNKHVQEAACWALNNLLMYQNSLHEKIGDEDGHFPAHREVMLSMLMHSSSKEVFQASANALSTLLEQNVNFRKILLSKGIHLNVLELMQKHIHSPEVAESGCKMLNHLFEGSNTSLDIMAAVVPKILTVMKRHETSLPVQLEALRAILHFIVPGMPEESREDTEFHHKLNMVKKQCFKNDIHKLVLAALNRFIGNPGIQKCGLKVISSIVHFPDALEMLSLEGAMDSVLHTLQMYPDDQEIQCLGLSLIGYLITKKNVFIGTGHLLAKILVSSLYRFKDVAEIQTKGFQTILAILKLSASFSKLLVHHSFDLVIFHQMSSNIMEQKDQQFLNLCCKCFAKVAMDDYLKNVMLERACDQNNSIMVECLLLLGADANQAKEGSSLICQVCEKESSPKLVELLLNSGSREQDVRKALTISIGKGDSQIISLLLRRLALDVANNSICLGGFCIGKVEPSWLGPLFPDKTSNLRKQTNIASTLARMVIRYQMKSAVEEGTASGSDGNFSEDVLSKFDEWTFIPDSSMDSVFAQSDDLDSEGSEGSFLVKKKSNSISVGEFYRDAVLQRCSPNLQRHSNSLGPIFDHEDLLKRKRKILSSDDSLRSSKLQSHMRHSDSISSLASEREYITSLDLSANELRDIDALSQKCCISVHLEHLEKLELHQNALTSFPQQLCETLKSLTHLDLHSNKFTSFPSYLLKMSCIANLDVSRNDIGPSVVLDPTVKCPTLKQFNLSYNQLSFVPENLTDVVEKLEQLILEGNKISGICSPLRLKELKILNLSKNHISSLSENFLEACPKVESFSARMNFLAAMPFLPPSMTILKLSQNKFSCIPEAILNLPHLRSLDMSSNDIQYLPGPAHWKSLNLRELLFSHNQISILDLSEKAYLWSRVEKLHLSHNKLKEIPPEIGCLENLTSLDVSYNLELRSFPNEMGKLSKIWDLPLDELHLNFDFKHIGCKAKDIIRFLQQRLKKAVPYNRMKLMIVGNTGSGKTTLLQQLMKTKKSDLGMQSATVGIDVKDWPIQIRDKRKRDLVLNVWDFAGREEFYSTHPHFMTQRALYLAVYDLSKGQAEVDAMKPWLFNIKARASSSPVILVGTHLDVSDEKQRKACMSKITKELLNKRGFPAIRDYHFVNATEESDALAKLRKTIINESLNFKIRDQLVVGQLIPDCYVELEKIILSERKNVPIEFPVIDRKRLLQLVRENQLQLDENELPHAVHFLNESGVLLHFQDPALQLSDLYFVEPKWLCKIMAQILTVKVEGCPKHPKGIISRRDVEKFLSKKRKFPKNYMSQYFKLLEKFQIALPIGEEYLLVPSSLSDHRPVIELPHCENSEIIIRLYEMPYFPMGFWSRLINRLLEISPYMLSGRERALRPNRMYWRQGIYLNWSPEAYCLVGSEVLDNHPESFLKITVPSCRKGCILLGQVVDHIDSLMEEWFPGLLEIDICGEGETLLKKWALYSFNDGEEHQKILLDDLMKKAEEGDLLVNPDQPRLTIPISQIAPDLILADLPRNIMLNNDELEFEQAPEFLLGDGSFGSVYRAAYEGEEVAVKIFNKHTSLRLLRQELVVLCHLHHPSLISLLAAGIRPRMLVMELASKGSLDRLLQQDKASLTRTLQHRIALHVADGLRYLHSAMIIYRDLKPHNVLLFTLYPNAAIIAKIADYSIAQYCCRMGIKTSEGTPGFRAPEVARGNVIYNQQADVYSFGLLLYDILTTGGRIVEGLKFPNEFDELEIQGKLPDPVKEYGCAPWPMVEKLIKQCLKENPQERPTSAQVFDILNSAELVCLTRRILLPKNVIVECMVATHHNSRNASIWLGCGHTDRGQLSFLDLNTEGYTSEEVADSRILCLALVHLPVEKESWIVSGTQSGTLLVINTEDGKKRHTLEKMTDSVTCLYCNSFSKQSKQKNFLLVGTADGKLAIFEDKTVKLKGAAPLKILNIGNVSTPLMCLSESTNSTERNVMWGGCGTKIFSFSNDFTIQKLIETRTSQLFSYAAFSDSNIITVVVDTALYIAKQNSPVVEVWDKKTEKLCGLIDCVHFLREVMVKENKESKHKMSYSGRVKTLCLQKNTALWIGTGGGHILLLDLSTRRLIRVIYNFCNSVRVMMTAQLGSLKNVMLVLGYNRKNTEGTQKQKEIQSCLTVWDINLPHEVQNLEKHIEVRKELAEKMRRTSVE

Row | Compound | IC50 (LRRK2 G2019S; class symbols) [nM] | Human liver microsomes CLhep [1] [mL/min/kg] | IC50 (LRRK2 G2019S) [nM]
1 | CCNc1nc(Nc2cn(C3C[C@@H]3C#N)nc2Cl)ncc1C(F)(F)F (single isomer, unassigned) [Compound 206] | < 30 |  | 
2 | CCNc1nc(Nc2cn(C3(C)CCOC3=O)nc2C)ncc1C(F)(F)F (centres unmarked) [Compound 100] | < 30 |  | 
3 | CCNc1nc(Nc2cnn(C3CCCN(CC(F)F)C3)c2C)ncc1C(F)(F)F (centres unmarked) [Compound 116] | < 30 |  | 
4 | [2H]C([2H])([2H])n1nc(C(C)(C)n2nccn2)cc1Nc1ncc(C(F)(F)F)c(NCC)n1 [Compound 34, N4-ethyl-N2-[1-(^2H3)methyl-3-[2-(2H-1,2,3-triazol-2-yl)propan-2-yl]-1H-pyrazol-5-yl]-5-(trifluoromethyl)pyrimidine-2,4-diamine] |  | 0.75 | 
5 | CCNc1nc(Nc2cn(C3C[C@H]3C#N)nc2C2CC2)ncc1Br (single isomer, unassigned) [Compound 215] | < 30 |  | 
6 | CNc1nc(Nc2cnn(C3CCCC3(C)O)c2C)ncc1C(F)(F)F (centres unmarked) [Compound 30] | 30 to 60 |  | 
7 | CCNc1nc(Nc2cc(C3(C)CCOC3=O)nn2C2CC2)ncc1Br (centres unmarked) [Compound 150] |  | 11.077 | 1.22
8 | CCNc1nc(Nc2cn(C3C[C@@H]3C#N)nc2C2CC2)ncc1Br (single isomer, unassigned) [Compound 214] | < 30 |  | 
9 | CNc1nc(Nc2cn(C3C[C@@H]3C#N)nc2C2CC2)ncc1C(F)(F)F (single isomer, unassigned) [Compound 208] | < 30 |  | 
10 | N#C[C@@H]1CC1n1cc(Nc2ncc(C(F)(F)F)c(NCC(F)F)n2)c(C2CC2)n1 (single isomer, unassigned) [Compound 210] | < 30 |  | 
11 | CCNc1nc(Nc2cnn3c2CC(n2nccn2)C3)ncc1C(F)(F)F (centres unmarked) [Compound 54A] | < 30 |  | 
12 | CCNc1nc(Nc2cc(C3(C)CCn4ncnc43)nn2C2CC2)ncc1C(F)(F)F (centres unmarked) [Compound 172] | < 30 | 19.9 | 1.47
13 | CNc1nc(Nc2cc(C3(C)CCOC3=O)nn2C2CC2)ncc1C(F)(F)F (centres unmarked) [Compound 155] |  | 5.519 | 1.95
14 | COc1nc(Nc2cn(C3(C)CCOC3=O)nc2C)ncc1Br (centres unmarked) [Compound 102] | < 30 |  | 
15 | Cc1nn(C2(C)CCOC2=O)cc1Nc1ncc(C(F)(F)F)c(C2CC2)n1 (centres unmarked) [Compound 103] | < 30 |  | 
16 | CCNc1nc(Nc2cn(C3(C)CCOC3=O)nc2C2CC2)ncc1Br (centres unmarked) [Compound 114] | < 30 | 16.508 | 1.05
17 | CNc1nc(Nc2cn(C3C[C@H]3C#N)nc2C2CC2)ncc1C(F)(F)F (single isomer, unassigned) [Compound 209] | < 30 |  | 
18 | CCNc1nc(Nc2cn(C3C[C@H]3C#N)nc2Cl)ncc1C(F)(F)F (single isomer, unassigned) [Compound 207] | < 30 |  | 
19 | CNc1nc(Nc2cn(C3(C)CCOC3=O)nc2Cl)ncc1C(F)(F)F (centres unmarked) [Compound 99] | < 30 |  | 
20 | CNc1nc(Nc2cn(C3(C)CCOC3=O)nc2C)ncc1C(F)(F)F (centres unmarked) [Compound 119] | < 30 |  | 
21 | CNc1nc(Nc2cnn(C3CN(C4COC4)CCC3(F)F)c2Cl)ncc1C(F)(F)F (centres unmarked) [Compound 28] | < 30 |  | 
22 | CCNc1nc(Nc2cnn3c2CC(C#N)C3)ncc1C(F)(F)F (centres unmarked) [Compound 52A] | < 30 |  | 
23 | COc1nc(Nc2cn(C3(C)CCNC3=O)nc2C)ncc1Br (centres unmarked) [Compound 64A] | < 30 |  | 
24 | CCNc1nc(Nc2cn(C3(C)CCOC3=O)nc2C2CC2)ncc1C(F)(F)F (centres unmarked) [Compound 104] |  | 11.59 | 0.96
25 | CCNc1nc(Nc2cn(C3(C)CCOC3=O)nc2Cl)ncc1C(F)(F)F (centres unmarked) [Compound 117] | < 30 |  | 
26 | CCNc1nc(Nc2cnn(C3CNCCC3(F)F)c2C)ncc1C(F)(F)F (centres unmarked) [Compound 200] | < 30 |  | 
27 | CNc1nc(Nc2cn(C(C)(C)c3ncn(C)n3)nc2C)ncc1C(F)(F)F [Compound 218] |  | 0 | 
28 | CCN1CCC(F)(F)C(n2ncc(Nc3ncc(C(F)(F)F)c(NC)n3)c2Cl)C1 (centres unmarked) [Compound 202] | < 30 |  | 
